Where two headings read alike, the source gives them in different places.

This experiment concerns A2780 cells. The experiment is described as follows: In-vitro cell proliferation assay (SRB, 72 hours). The class given is cell-based. The note with it: Homo sapiens, A2780 cells, 72 hours, SRB, read-out: Cell Proliferation (IC50).

Description: Assay 2: In-Vitro Cell Proliferation Assay
Assay Method. […] The compounds were then further diluted to 10× final concentration in culture media, whereupon 20 μL of each dilution was added to the plated cells with controls (e.g. DMSO and blank) to make a final volume of 200 μL. The final DMSO concentration in each well was 0.1%. The plates were then incubated for 72 hours at 37° C. in a 5% CO2 incubator. The number of viable cells was then assessed using sulforhodamine B (SRB) assay. Cells were fixed at 4° C. for 1 hour with the addition of 50 μL 30% trichloroacetic acid (TCA) to make a final concentration of 6% TCA. The plates were washed four times with H2O and allowed to dry for at least 1 hour, whereupon 100 μL of a 4% SRB in 1% acetic acid solution was added to each well and incubated at room temperature for at least 30 min. The plates were then washed three times with 1% acetic acid, dried, and treated with 100 μL of 10 mM Tris-Base solution. The plates were then read in a microplate reader at an absorbance of 570 nm. Background was generated on a separate plate with media only.
Determination of IC50 Values. First, the signals from the background plate were averaged, then the background was subtracted from the test plates.

With `O=C(NCC1CC12CCN(C(=O)c1ccccc1Cn1ccnc1)CC2)c1cc2ccncc2o1` (stereo not shown) [Example 260, N-[[6-(2-(imidazol-1-ylmethyl)benzoyl]-6-azaspito[2.5]octan-2-yl]methyl]furo[2,3-c]pyridine-2-carboxamide], where the note is “A2780, 72 h”, the IC50 was 2000 nM.
For the molecule `O=C(NCC1CC12CCN(C(=O)c1ccc3nccnc3c1)CC2)c1cc2ccncc2o1` (stereo not shown) [Example 261, N-[[6-(quinoxaline-6-carbonyl)-6-azaspiro[2.5]octan-2-yl]methyl]furo[2,3-c]pyridine-2-carboxamide], the IC50 (A2780, 72 h) is 15.8 nM.
On to `O=C(NCC1CC12CCN(C(=O)c1ccc3cnccc3n1)CC2)c1cc2ccncc2o1` (stereo not shown) [Example 262, N-[[6-(1,6-naphthyridine-2-carbonyl)-6-azaspiro[2.5]octan-2-yl]methyl]furo[2,3-c]pyridine-2-carboxamide], for which the IC50 (A2780, 72 h) is 79.5 nM.
For the molecule `CC(=O)Nc1cccc(C(=O)N2CCC3(CC2)CC3CNC(=O)c2cc3ccncc3o2)c1` (stereo not shown) [Example 264, N-[[6-(3-acetamidobenzoyl)-6-azaspiro[2.5]octan-2-yl]methyl]furo[2,3-c]pyridine-2-carboxamide], for the setting “A2780, 72 h”, the IC50 was 245 nM.
Still for that read-out and setting: as for `CC(=O)Nc1cnccc1C(=O)N1CCC2(CC1)CC2CNC(=O)c1cc2ccncc2o1` (stereo not shown) [Example 265, N-[[6-(3-acetamidopyridine-4-carbonyl)-6-azaspiro[2.5]octan-2-yl]methyl]furo[2,3-c]pyridine-2-carboxamide], the figure is 2000 nM; as for `O=C(NCC1CC12CCN(C(=O)c1ccc3nonc3c1)CC2)c1cc2ccncc2o1` (stereo not shown) [Example 266, N-[[6-(2,1,3-benzoxadiazole-5-carbonyl)-6-azaspiro[2.5]octan-2-yl]methyl]furo[2,3-c]pyridine-2-carboxamide], 1470 nM; as for `O=C(NCC1CC12CCN(C(=O)c1ccnc3ncccc13)CC2)c1cc2ccncc2o1` (stereo not shown) [Example 267, N-[[6-(1,8-naphthyridine-4-carbonyl)-6-azaspiro[2.5]octan-2-yl]methyl]furo[2,3-c]pyridine-2-carboxamide], 2000 nM.
`O=C(NCC1CC12CCN(C(=O)c1cnc3ccccc3n1)CC2)c1cc2ccncc2o1` (stereo not shown) [Example 269]: the IC50 (A2780, 72 h) is 16 nM.
Still for that read-out and setting: as for `O=C(NCC1CC12CCN(C(=O)c1ccc3cccnc3n1)CC2)c1cc2ccncc2o1` (stereo not shown) [Example 271, N-[[6-(1,8-naphthyridine-2-carbonyl)-6-azaspiro[2.5]octan-2-yl]methyl]furo[2,3-c]pyridine-2-carboxamide], the figure is 139 nM.
The same measure, in the same setting: as for `O=C(NCC1CC12CCN(C(=O)c1ccno1)CC2)c1cc2ccncc2o1` (stereo not shown) [Example 272, N-[[6-(isoxazole-5-carbonyl)-6-azaspiro[2.5]octan-2-yl]methyl]furo[2,3-c]pyridine-2-carboxamide], the figure is 2000 nM.
As to `CC(C)CC(=O)N1CCC2(CC1)CC2CNC(=O)c1cc2ccncc2o1` (stereo not shown) [Example 273, N-[[6-(3-methylbutanoyl)-6-azaspiro[2.5]octan-2-yl]methyl]furo[2,3-c]pyridine-2-carboxamide], the IC50 (A2780, 72 h) was 207 nM.
The same measure, in the same setting: as for `CC(C)(C)OC(=O)N1CCC2(CC1)CC2CNC(=O)N1Cc2cn[nH]c2C1` (stereo not shown) [Example 274, tert-Butyl 2-[(4,6-dihydro-1H-pyrrolo[3,4-c]pyrazole-5-carbonylamino)methyl]-6-azaspiro[2.5]octane-6-carboxylate], the figure is 2000 nM; as for `CN1CCC(C)(CC(=O)N2CCC3(CC2)CC3CNC(=O)c2cc3ccncc3o2)CC1` (stereo not shown) [Example 275, N-([6-[2-(1,4-dimethylpiperidin-4-yl)acetyl]-6-azaspiro[2.5]octan-1-yl]methyl)furo[2,3-c]pyridine-2-carboxamide], 17.7 nM; as for `O=C(NCC1CC12CCN(C(=O)Cc1cccnc1)CC2)c1cc2cnccc2[nH]1` (stereo not shown) [Example 277, N-[[6-[2-(3-pyridyl)acctyl]-6-azaspiro[2.5]octan-2-yl]methyl]-1H-pyrrolo[3,2-c]pyridine-2-carboxamide], 755 nM.
Take `O=C(NCC1CC12CCN(C(=O)Cc1ccncc1)CC2)c1cc2cnccc2[nH]1` (stereo not shown) [Example 278, N-[[6-[2-(4-pyridyl)acetyl]-6-azaspiro[2.5]octan-2-yl]methyl]-1H-pyrrolo[3,2-c]pyridine-2-carboxamide]: the IC50 (A2780, 72 h) worked out at 2000 nM.
On to `Cn1nnc(-c2ccc(C(=O)N3CCC4(CC3)CC4CNC(=O)c3cc4ccncc4o3)cc2)n1` (stereo not shown) [Example 280], for which the IC50 (A2780, 72 h) was determined as 6.83 nM.
Turning to `Cc1cc(C)c(C(=O)N2CCC3(CC2)CC3CNC(=O)c2cc3ccncc3o2)cn1` (stereo not shown) [Example 281, N-[[6-(4,6-dimethylpyridine-3-carbonyl)-6-azaspiro[2.5]octan-2-yl)methyl]furo[2,3-c]pyridine-2-carboxamide], the IC50 (A2780, 72 h) worked out at 18.5 nM.
Consider `O=C(Cc1ncccn1)N1CCC2(CC1)CC2CNC(=O)N1Cc2ccncc2C1` (stereo not shown) [Example 286, N-[[6-(2-pyrimidin-2-ylacetyl)-6-azaspiro[2.5]octan-2-yl]methyl]-1,3-dihydropyrrolo[3,4-c]pyridine-2-carboxamide], for which the IC50 came to 27 nM.
For the molecule `Cc1nn(C(C)(C)C)c(C)c1C(=O)N1CCC2(CC1)CC2CNC(=O)c1cc2ccncc2o1` (stereo not shown) [Example 294, N-[[6-(1-tert-butyl-3,5-dimethyl-pyrazole-4-carbonyl)-6-azaspiro[2.5]octan-2-yl]methyl]furo[2,3-c]pyridine-2-carboxamide], the IC50 (A2780, 72 h) worked out at 12.1 nM.
Regarding `Cc1nn(Cc2ccccc2)c(C)c1C(=O)N1CCC2(CC1)CC2CNC(=O)c1cc2ccncc2o1` (stereo not shown) [Example 295, N-[[6-(1-benzyl-3,5-dimethyl-pyrazole-4-carbonyl)-6-azaspiro[2.5]octan-2-yl]methyl]furo[2,3-c]pyridine-2-carboxamide], for the setting “A2780, 72 h”, the IC50 is 0.944 nM.
In the case of `Cn1nc(C(C)(C)C)cc1C(=O)N1CCC2(CC1)CC2CNC(=O)c1cc2ccncc2o1` (stereo not shown) [Example 296, N-[[6-(5-tert-butyl-2-methyl-pyrazole-3-carbonyl)-6-azaspiro[2.5]octan-2-yl]methyl]furo[2,3-c]pyridine-2-carboxamide], the IC50 (A2780, 72 h) came to 10.8 nM.
On the same count and under the same terms, under `CCn1nccc1C(=O)N1CCC2(CC1)CC2CNC(=O)c1cc2ccncc2o1` (stereo not shown) [Example 297, N-[[6-(2-ethylpyrazole-3-carbonyl)-6-azaspiro[2.5]octan-2-yl]methyl]furo[2,3-c]pyridine-2-carboxamide] stands 278 nM; under `Cc1cnn(C(C)(C)C)c1C(=O)N1CCC2(CC1)CC2CNC(=O)c1cc2ccncc2o1` (stereo not shown) [Example 298, N-[[6-(2-tert-butyl-4-methyl-pyrazole-3-carbonyl)-6-azaspiro[2.5]octan-2-yl]methyl]furo[2,3-c]pyridine-2-carboxamide], 103 nM.
Take `Cc1cnn(C)c1C(=O)N1CCC2(CC1)CC2CNC(=O)c1cc2ccncc2o1` (stereo not shown) [Example 299, N-[[6-(2,4-dimethylpyrazole-3-carbonyl)-6-azaspiro[2.5]octan-2-yl]methyl]furo[2,3-c]pyridine-2-carboxamide]: the IC50 (A2780, 72 h) was 249 nM.
For `O=C(NCC1CC12CCN(C(=O)c1n[nH]c3ccccc13)CC2)c1cc2ccncc2o1` (stereo not shown) [Example 302, N-[[6-(1H-indazole-3-carbonyl)-6-azaspiro[2.5]octan-2-yl]methyl]furo(2,3-c]pyridine-2-carboxamide], the IC50 (A2780, 72 h) turned out to be 90.3 nM.
In the case of `CC(C)N1CCC(n2cc(C(=O)N3CCC4(CC3)CC4CNC(=O)c3cc4ccncc4o3)cn2)C1` (stereo not shown) [Example 303, N-[[6-(1-(1-isopropylpyrrolidin-3-yl)pyrazole-4-carbonyl]-6-azaspiro[2.5]octan-2-yl]methyl]furo[2,3-c]pyridine-2-carboxamide], under “A2780, 72 h”, the IC50 came out at 2000 nM.
As for `Cc1nn(C)cc1-c1cc(C(=O)N2CCC3(CC2)CC3CNC(=O)c2cc3ccncc3o2)no1` (stereo not shown) [Example 305, N-[[6-[5-(1,3-dimethylpyrazol-4-yl)isoxazole-3-carbonyl]-6-azaspiro[2.5]octan-2-yl]methyl]furo[2,3-c]pyridine-2-carboxamide], where the note is “A2780, 72 h”, the IC50 was determined as 61.2 nM.
With `CC(C)(C)OC(=O)N1Cc2[nH]nc(C(=O)N3CCC4(CC3)CC4CNC(=O)c3cc4ccncc4o3)c2C1` (stereo not shown) [Example 306, tert-butyl 3-[2-[(furo[2,3-c]pyridine-2-carbonylamino)methyl]-6-azaspiro[2.5]octane-6-carbonyl]-4,6-dihydro-1H-pyrrolo[3,4-c]pyrazole-5-carboxylate], under “A2780, 72 h”, the IC50 was found to be 38.8 nM.
For the molecule `CN1CCC(n2cc(C(=O)N3CCC4(CC3)CC4CNC(=O)c3cc4ccncc4o3)cn2)C1` (stereo not shown) [Example 307, N-[[6-[1-(1-methylpyrrolidin-3-yl)pyrazole-4-carbonyl]-6-azaspiro[2.5]octan-2-yl]methyl]furo[2,3-c]pyridine-2-carboxamide], the IC50 (A2780, 72 h) was determined as 26.7 nM.
With `Cc1cc(C(=O)N2CCC3(CC2)CC3CNC(=O)c2cc3ccncc3o2)n(C(C)(C)C)n1` (stereo not shown) [Example 308, N-[[6-(2-tert-butyl-5-methyl-pyrazole-3-carbonyl)-6-azaspiro[2.5]octan-2-yl]methyl]furo[2,3-c]pyridine-2-carboxamide], for the setting “A2780, 72 h”, the IC50 came out at 2000 nM.
`Cc1nc2ccccn2c1C(=O)N1CCC2(CC1)CC2CNC(=O)c1cc2ccncc2o1` (stereo not shown) [Example 309, N-[[6-(2-methylimidazo[1,2-a]pyridine-3-carbonyl)-6-azaspiro[2.5]octan-2-yl]methyl]furo[2,3-c]pyridine-2-carboxamide]: the IC50 (A2780, 72 h) amounted to 24.7 nM.
Consider `Cc1ccc2nc(C(=O)N3CCC4(CC3)CC4CNC(=O)c3cc4ccncc4o3)[nH]c2c1` (stereo not shown) [Example 310, N-[[6-(6-methyl-1H-benzimidazole-2-carbonyl)-6-azaspiro[2.5]octan-2-yl]methyl]furo[2,3-c]pyridine-2-carboxamide], for which the IC50 (A2780, 72 h) worked out at 30.8 nM.
On to `Cc1cccc2nc(C(=O)N3CCC4(CC3)CC4CNC(=O)c3cc4ccncc4o3)cn12` (stereo not shown) [Example 311, N-[[6-(5-methylimidazo[1,2-a]pyridine-2-carbonyl)-6-azaspiro[2.5]octan-2-yl]methyl]furo[2,3-c]pyridine-2-carboxamide], for which the IC50 (A2780, 72 h) is 12.1 nM.
Turning to `O=C(NCC1CC12CCN(C(=O)c1n[nH]c3cc(F)ccc13)CC2)c1cc2ccncc2o1` (stereo not shown) [Example 312, N-[[6-(6-fluoro-1H-indazole-3-carbonyl)-6-azaspiro[2.5]octan-2-yl]methyl]furo[2,3-c]pyridine-2-carboxamide], under “A2780, 72 h”, the IC50 was 9.61 nM.
